Test results reported in patent publication US5110927A (The United States of America as represented by the …, priority 1987, dated 1992).
“Also recorded” adds a separate entry of the source. Like-named read-outs stand apart in the source and are kept apart here.

How the values were obtained:
[1] = test system: alpha1-adrenoceptors and other receptors; conditions: prior art; cited from earlier work
[2] = test system: α1-adrenoceptor (3H-prazosin binding sites); assay: irreversibility experiment: membranes preincubated with compound, washed, assayed for saturation of 3H-prazosin binding; set-up: species or system rat; conditions: for irreversible blockade / effect on 3H-prazosin binding sites (in words): membranes, preincubation and washing
[3] = test system: hypertensive patients; normotensive and hypertensive animals; conditions: human, in vivo; cited from earlier work
[4] = molecular target: α1-adrenoceptor (3H-prazosin binding sites); assay: displacement of 3H-prazosin from rat cerebral cortical (brain) membranes; conditions: for -logIC50: 3H-prazosin displacement, rat cerebral cortical membranes
Experimental: IC50 values and apparent Ki values were determined as in Table 1.
(§1) Rat brain cortices were homogenized in approximately 30 volumes/wet weight of 50 mM Tris buffer, pH 7.4, containing 10 mM MgCl2 by use of a Polytron (setting 6 for 10 seconds). It should be noted that this buffer was used throughout the experimental procedures. The homogenate was centrifuged at 48,000×g for 10 minutes in a Sorvall RC-5B centrifuge. The resulting pellet was resuspended in buffer by use of a Polytron and recentrifuged. This process was repeated and the pellet was resuspended in approximately 200 volumes for affinity studies or 20 volumes for irreversibility experiments.
Specific binding was defined as the difference between total binding (measured in the absence of any ligand) and non-specific binding (measured in the presence of 10 microM phentolamine). Duplicate tubes were used for each condition. Reaction tubes were incubated for 30 minutes at 30° C., then diluted to 5 ml with ice cold buffer, and filtered under reduced pressure through Whatman GF/C glass fiber filters. The reaction tubes and filters were washed three additional times with buffer.

[5] = test system: phenylephrine, alpha1-adrenergic pressor response; assay: diastolic blood pressure response to phenylephrine in anesthetized rats; type: in vivo, rat; conditions: i.v., prazosin 0.11 mg/kg or compound 47 0.09 mg/kg, 15 min
Experimental: (§2) Male rats were anesthetized, cannulated, and treated with hexamethonium bromide to block ganglionic effect, and their basal response in blood pressure to pressor compounds was measured. […] After fifteen minutes, the response in blood pressure to pressor compounds was re-evaluated.

[6] = test system: BHT 933, alpha2-adrenergic pressor response; assay: diastolic blood pressure response to BHT 933 in anesthetized rats; type: in vivo, rat; conditions: i.v., prazosin 0.11 mg/kg or compound 47 0.09 mg/kg, 15 min
Experimental: as §2

[7] = test system: catecholamine-activated efflux of calcium ions, rat parotid cells; assay: calcium efflux activated by catecholamines in dispersed parotid cells; type: cell-based
[8] = molecular target: T1, α1-adrenoceptor (3H-prazosin binding sites) (Rattus norvegicus, UniProt P15823); assay: irreversibility experiment: membranes preincubated with compound, washed, assayed for saturation of 3H-prazosin binding; conditions: spleen membranes, FIG. 3; statistically insignificant
T1 construct: Rat brain cortices were homogenized; from tissue; host or cells: rat brain cortex membranes; for some results heart ventricle, kidney cortex and spleen membranes
T1 sequence (P15823 1-515): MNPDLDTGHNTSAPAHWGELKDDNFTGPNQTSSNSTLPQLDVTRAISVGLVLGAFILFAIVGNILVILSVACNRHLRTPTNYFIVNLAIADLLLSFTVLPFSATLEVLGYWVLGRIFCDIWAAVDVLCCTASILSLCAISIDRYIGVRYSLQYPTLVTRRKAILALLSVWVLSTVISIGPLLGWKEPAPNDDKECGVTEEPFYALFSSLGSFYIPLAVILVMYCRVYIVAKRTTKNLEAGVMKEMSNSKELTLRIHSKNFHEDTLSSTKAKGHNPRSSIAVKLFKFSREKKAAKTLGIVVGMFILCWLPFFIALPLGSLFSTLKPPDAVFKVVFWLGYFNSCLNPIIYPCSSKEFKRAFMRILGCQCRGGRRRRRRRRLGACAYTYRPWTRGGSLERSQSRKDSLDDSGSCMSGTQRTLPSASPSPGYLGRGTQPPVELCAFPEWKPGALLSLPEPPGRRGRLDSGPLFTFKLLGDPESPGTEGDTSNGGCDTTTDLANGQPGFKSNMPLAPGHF

[9] = test system: alpha2-adrenoceptors (3H-yohimbine binding sites); assay: irreversibility experiment: preincubation and washing of brain membranes, then 3H-yohimbine binding; set-up: species or system rat; conditions: preincubated and washed
Experimental: (§3) FIG. 5 - In vitro blockage of adrenergic binding sites in rat brain membranes by compound No. b 47 Membranes were preincubated without 0---0, or with 0---0 1×10^-7 M of compound No. 47 and processed as described in the Methods. Membranes were assayed for ^3 -prazosin binding and either ^3 -DHA or ^3 -yohimbine binding. The data are the averages of two separate experiments.
(§4) Aliquots of a suspension of membranes (5 ml), prepared as described above, were incubated with either the addition of only buffer (control) or a solution of the tested compound at various concentrations ranging from 1×10^-10 to 1×10^-5 for about 60 minutes at about 30° C. The suspensions were then diluted to approximately 40 mL with buffer, and incubated a further 10 minutes on ice. The membranes were then washed by a series of four centrifugations and resuspensions before they were finally resuspended in approximately 50 mL buffer for assay of saturation of ^3 -prazosin binding.

[10] = molecular target: T2, beta-adrenoceptors (3H-DHA binding sites) (Rattus norvegicus, UniProt P18090); assay: displacement of 3H-DHA from rat brain membranes
T2 construct: Membranes from rat brain cortex were prepared; from tissue; host or cells: rat brain cortex membranes
Experimental: (§5) FIG. 1 - Affinity of compound No. 47 at adrenergic binding sites on brain membranes. Membranes from rat brain cortex were prepared and the displacement of either ^3 H-prazosin 0---0, ^3 H-yohimbine Δ---Δ or ^3 H-DHA --- by compound No. 47 was measured. IC50 values and apparent Ki values were determined as in Table 1. The data in the figure are from a representative experiment which was repeated. […] The results are the averages of two separate experiments.
as §1

[11] = test system: norepinephrine-induced contraction of aorta rings; assay: contraction of rabbit aorta rings caused by norepinephrine; conditions: 10^-6 M, thirty minutes exposure
Experimental: Rings from aortas of rabbits were prepared using standard procedures, the rings were characterized, and the effects of compound 47 on contraction caused by norepinephrine were characterized.

[12] = test system: α1-adrenoceptor (3H-prazosin binding sites); assay: intact animal study: intraperitoneal injection, membranes prepared 16 hours later and assayed for saturation of 3H-prazosin binding; type: in vivo, rat
Experimental: Sixteen hours later, the animals were sacrificed, membranes were prepared from various tissues, and assayed for saturation of ^3 -prazosin binding.
To test its efficacy in vivo. compound No. 47 was injected intraperitoneally at a dose of 10 mg/kg into rats. In membranes prepared from brains and hearts of animals 16 hours after injection of compound 47, a 32-44% decrease in Bmax was noted, compared to animals injected with vehicle only. […]

[13] = molecular target: alpha2-adrenoreceptors (3H-yohimbine binding sites); assay: displacement of 3H-yohimbine from rat brain membranes
Experimental: as §5, §1

[14] = test system: beta-adrenoceptors (3H-DHA binding sites); assay: irreversibility experiment: preincubation and washing of brain membranes, then 3H-DHA binding; set-up: species or system rat; conditions: preincubated and washed
Experimental: as §3, §4

[15] = test system: cholinergic (muscarinic) activated efflux of calcium ions, rat parotid cells; assay: calcium efflux activated by cholinergic (muscarinic) system in dispersed parotid cells; type: cell-based

T2 sequence (P18090 whole entry): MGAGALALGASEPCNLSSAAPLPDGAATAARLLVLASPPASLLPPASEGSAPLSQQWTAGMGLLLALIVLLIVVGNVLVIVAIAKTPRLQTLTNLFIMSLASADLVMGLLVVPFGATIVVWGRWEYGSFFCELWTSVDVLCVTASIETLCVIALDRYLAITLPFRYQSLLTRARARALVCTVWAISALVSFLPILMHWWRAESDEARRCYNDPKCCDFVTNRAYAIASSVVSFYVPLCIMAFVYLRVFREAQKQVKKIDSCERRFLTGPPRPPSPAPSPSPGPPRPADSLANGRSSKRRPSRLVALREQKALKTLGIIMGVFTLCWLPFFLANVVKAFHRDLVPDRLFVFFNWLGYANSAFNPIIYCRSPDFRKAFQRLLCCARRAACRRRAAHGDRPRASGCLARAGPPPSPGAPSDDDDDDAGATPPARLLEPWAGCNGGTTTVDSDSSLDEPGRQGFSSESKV

COc1cc2nc(N3CCN(C(=O)c4ccco4)CC3)nc(N)c2cc1OC [Compound 1, 2-(4-(2-furoyl)-piperazine-1-yl)-4-amino-6,7-dimethoxy-quinazoline, reference compound]
receptor specificity (in words) [1]: preferential affinity for postysynaptic alpha1 -adrenoreceptors
irreversible blockade / effect on 3H-prazosin binding sites (in words) ([2]; listed as Prazosin): prevented the decrease in binding sites caused by compound 47 alone; also recorded: had no effect on ^3 -prazosin binding
irreversible blockade / effect on 3H-prazosin binding sites (in words) ([2]; listed as prazosin): Washing the prazosin from the membranes restored the number of alpha1 -adrenoceptors
lowering of blood pressure [3]: lower blood pressure in hypertensive patients and in normotensive and hypertensive animals
-logIC50 [4]: 9.79
effect on blood pressure response to phenylephrine [5]: a higher concentration of pressor compounds was required to obtain increases in blood pressure
effect on blood pressure response to BHT 933 [6]: a higher concentration of pressor compounds was required to obtain increases in blood pressure

COc1cc2nc(N3CCN(C(=O)C4=CC5C=CC4CC5)CC3)nc(N)c2cc1OC (stereo not drawn) [Compound 47, 4-amino-2(4-bicyclo[2.2.2]octa-2,5-diene-2-carboxypiperazin-1-yl)-6,7-dimethoxyquinazoline]
inhibition of catecholamine-activated calcium efflux [7]: potently inhibited the efflux of calcium ions
decrease in binding sites, spleen membranes [8]: 18%
preincubation time to maximum blockade ([2]; FIG. 6, 1×10^-8 M, preincubation 15 min to 3 hr): about 45 minutes
Kd (KD) of remaining 3H-prazosin binding sites (in words) ([2]; after preincubation and washing): without a change in the affinity (KD) of the remaining sites; also recorded: Higher concentrations in the preincubation mixture increased the Kd of the remaining sites; also recorded: only decreased the concentration of ligand by 10- and 100-fold, respectively, at which the large Kd effects were noted; also recorded: the Kd of the remaining receptors increased when lower concentrations of added ligand were used in the diluted preincubation mixtures
blockage of 3H-prazosin binding ([2]; brain membranes, 1 micromole of compound 47 in preincubation): approximately 50%
maximum blockade of 3H-prazosin binding sites ([2]; brain membranes, altered protocols): no more than 50%
reduction of 3H-prazosin binding ([2]; brain membranes, preincubated with 10 nM, washed): 50%
maximum blockade after double preincubation ([2]; brain membranes, two preincubations with 10 nM, FIG. 7): ≤ 50%
blockade of binding sites, heart membranes ([2]; heart membranes, preincubated, FIG. 3): 40-50%
blockade of binding sites, kidney membranes ([2]; kidney membranes, preincubated, FIG. 3): 40-50%
irreversible blockade / effect on 3H-prazosin binding sites (in words) [2]: irreversible; also recorded: decreased the number of alpha1 -adrenoceptors permanently
irreversible blockade / effect on 3H-prazosin binding sites (in words) ([2]; listed as alkylated prazosin): Only approximately one half of the alpha1 -adrenoceptors could be eliminated in a clean manner
blockade of 3H-prazosin binding sites under altered protocols (in words) ([2]; preincubation time, ligand/receptor ratio, buffer, (-)epinephrine, double preincubation): remained at this level even after three hours of preincubation; also recorded: No difference in blockade; also recorded: Increasing the preincubation time up to three hours did not increase the amount of blockade; also recorded: did not change the outcome of the results; also recorded: did not affect the amount of blockade; also recorded: did not lead to further blockade
effect of preincubation on 3H-yohimbine binding (alpha2) [9]: did not irreversibly block ^3 -yohimbine binding sites; also recorded: unaffected
effect of preincubation on 3H-yohimbine binding (alpha2) ([9]; listed as alkylated prazosin): did not introduce permanent change
Ki ([10]; FIG. 1, rat brain cortex membranes, read-out: Apparent Ki at 3H-DHA binding sites): 5910 nM
displacement of 3H-DHA (in words) ([10]; brain membranes): much weaker competitor
persistence of effect on norepinephrine contraction of aorta rings [11]: could not be cancelled by 21 hours of washing at 4 °C
% Reduction in Bmax, brain ([12]; 10 mg/kg i.p., brain): 36%
Kd ([12]; 10 mg/kg i.p., brain, control 0.317 ± 0.071, read-out: Kd, experimental, brain): 0.292 ± 0.045 nM
% Reduction in Bmax, heart ([12]; 10 mg/kg i.p., heart): 43%
Kd ([12]; 10 mg/kg i.p., heart, control 0.150 ± 0.019, read-out: Kd, experimental, heart): 0.255 ± 0.072 nM
% Reduction in Bmax, kidney ([12]; 10 mg/kg i.p., kidney): 21%
decrease in Bmax, brains and hearts ([12]; 10 mg/kg i.p., vs vehicle): 32-44%
Kd of remaining receptors after i.p. injection (in words) ([12]; i.p.): a significant increase in the Kd of the remaining receptors was seen
Ki ([13]; FIG. 1, rat brain cortex membranes, read-out: Apparent Ki at 3H-yohimbine binding sites): 884 nM
affinity at 3H-yohimbine binding sites relative to 3H-prazosin binding sites ([13]; brain membranes): over a hundred times lower
displacement of 3H-yohimbine (in words) ([13]; brain membranes): much weaker competitor
effect of preincubation on 3H-DHA binding (beta) [14]: unaffected
effect of preincubation on 3H-DHA binding (beta) ([14]; listed as alkylated prazosin): did not introduce permanent change
-logIC50 [4]: 7.99
Ki ([4]; FIG. 1, rat brain cortex membranes, read-out: Apparent Ki at 3H-prazosin binding sites): 3.44 nM
affinity to alpha1-adrenoceptors (in words) ([4]; discussion of Table 1): excellent affinity; also recorded: apparent nanomolar potency
effect on blood pressure response to phenylephrine [5]: counteracted only to phenylephrine
effect on muscarinic-activated calcium efflux [15]: did not interfere in the efflux of calcium ions
